Laboratory results taken from patent publication US10736320B2, “Pesticidally active polycyclic derivatives with 5-membered sulfur containing heterocyclic ring systems” (Syngenta Participations AG, priority 2015, dated 2020).

Columns and labels:
[1] = system: Diabrotica balteata (corn root worm); test: Insecticidal action against Diabrotica balteata (corn root worm), sprayed maize sprouts; type: in vivo; details: 96 h, application rate of 200 ppm, L2 larvae, 4 days after infestation
Description: Maize sprouts, placed on an agar layer in 24-well microtiter plates were treated with aqueous test solutions prepared from 10,000 ppm DMSO stock solutions by spraying. After drying, the plates were infested with L2 larvae (6 to 10 per well). The samples were assessed for mortality 4 days after infestation.

[2] = system: Myzus persicae (green peach aphid); test: Insecticidal action against Myzus persicae (green peach aphid), sprayed sunflower leaf discs; type: in vivo; details: foliar, 144 h, application rate of 200 ppm, aphid population of mixed ages, 6 days after infestation
Description: Sunflower leaf discs were placed on agar in a 24-well microtiter plate and sprayed with aqueous test solutions prepared from 10,000 ppm DMSO stock solutions. After drying, the leaf discs were infested with an aphid population of mixed ages. The samples were assessed for mortality 6 days after infestation.

[3] = system: Plutella xylostella (diamond back moth); test: Insecticidal action against Plutella xylostella (diamond back moth), treated artificial diet; type: in vivo; details: 120 h, application rate of 200 ppm, L2 larvae, 5 days after infestation, read-out: effect in at least one of the two categories (mortality or growth inhibition)
Description: 24-well microtiter plates with artificial diet were treated with aqueous test solutions prepared from 10,000 ppm DMSO stock solutions by pipetting. After drying, the plates were infested with L2 larvae (10 to 15 per well). The samples were assessed for mortality and growth inhibition in comparison to untreated samples 5 days after infestation.

[4] = system: Spodoptera littoralis (Egyptian cotton leaf worm); test: Insecticidal action against Spodoptera littoralis (Egyptian cotton leaf worm), sprayed cotton leaf discs; type: in vivo; details: foliar, 72 h, application rate of 200 ppm, L1 larvae, 3 days after infestation, read-out: control (at least one of mortality, anti-feedant effect, and growth inhibition)
Description: Cotton leaf discs were placed on agar in 24-well microtiter plates and sprayed with aqueous test solutions prepared from 10,000 ppm DMSO stock solutions. After drying the leaf discs were infested with five L1 larvae. The samples were assessed for mortality, anti-feedant effect, and growth inhibition in comparison to untreated samples 3 days after infestation. Control of Spodoptera littoralis by a test sample is when at least one of mortality, anti-feedant effect, and growth inhibition is higher than the untreated sample.

[5] = system: Spodoptera littoralis (Egyptian cotton leaf worm); test: Insecticidal action against Spodoptera littoralis (Egyptian cotton leaf worm), uptake by lettuce roots from agar; type: in vivo; details: 144 h, test rate of 12.5 ppm, 6 days after infestation, read-out: effect in at least one of the three categories (mortality, anti-feedancy, or growth inhibition)
Source text: Test compounds were applied by pipette from 10,000 ppm DMSO stock solutions into 24-well plates and mixed with agar. Lettuce seeds were placed on the agar and the multi well plate was closed by another plate which contains also agar. After 7 days the roots have absorbed the compound and the lettuce has grown into the lid plate. The lettuce leafs were now cut off into the lid plate. Spodoptera eggs were pipetted through a plastic stencil on a humid gel blotting paper and the plate closed with it. The samples were assessed for mortality, anti-feedant effect and growth inhibition in comparison to untreated samples 6 days after infestation.

CCSc1cc(C(F)(F)F)cnc1-c1nnc(-c2cncc(C(F)(F)F)c2)s1 [Compound P5, 2-[3-ethylsulfanyl-5-(trifluoromethyl)-2-pyridyl]-5-[5-(trifluoromethyl)-3-pyridyl]-1,3,4-thiadiazole]
melting point: 151 to 153 °C

CCS(=O)(=O)c1cc(C2CC2)cnc1-c1nnc(-c2cncc(C(F)(F)F)c2)s1 [Compound P19, 2-(5-cyclopropyl-3-ethylsulfonyl-2-pyridyl)-5-[5-(trifluoromethyl)-3-pyridyl]-1,3,4-thiadiazole]
mortality at 200 ppm [1]: ≥ 80%
mortality at 200 ppm [2]: ≥ 80%
percent effect (mortality or growth inhibition) at 200 ppm [3]: ≥ 80%
mortality at 200 ppm [4]: ≥ 80%

CCSc1cc(C(F)(F)F)ccc1-c1nnc(-c2cncc(C(F)(F)F)c2)s1 [Compound P3, 2-[2-ethylsulfanyl-4-(trifluoromethyl)phenyl]-5-[5-(trifluoromethyl)-3-pyridyl]-1,3,4-thiadiazole]
melting point: 143 to 145 °C

CCS(=O)(=O)c1cc(C(F)(F)F)ccc1-c1ncc(-c2cncc(C(F)(F)F)c2)s1 [Compound P9, 2-[2-ethylsulfonyl-4-(trifluoromethyl)phenyl]-5-[5-(trifluoromethyl)-3-pyridyl]thiazole]
mortality at 200 ppm [1]: ≥ 80%
mortality at 200 ppm [4]: ≥ 80%

CCS(=O)(=O)c1ccc(C2CC2)nc1-c1nnc(-c2cncc(C(F)(F)F)c2)s1 [Compound P20, 2-(6-cyclopropyl-3-ethylsulfonyl-2-pyridyl)-5-[5-(trifluoromethyl)-3-pyridyl]-1,3,4-thiadiazole]
mortality at 200 ppm [1]: ≥ 80%
percent effect (mortality or growth inhibition) at 200 ppm [3]: ≥ 80%
mortality at 200 ppm [4]: ≥ 80%

CCS(=O)(=O)c1cc(C2CC2)cnc1-c1nnc(-c2cc(C(F)(F)F)ccn2)s1 [Compound P18, 2-(5-cyclopropyl-3-ethylsulfonyl-2-pyridyl)-5-[4-(trifluoromethyl)-2-pyridyl]-1,3,4-thiadiazole]
mortality at 200 ppm [1]: ≥ 80%
percent effect (mortality or growth inhibition) at 200 ppm [3]: ≥ 80%
mortality at 200 ppm [4]: ≥ 80%

CCSc1cc(C(F)(F)F)ccc1-c1nnc(-c2ccc(C(F)(F)F)nc2)s1 [Compound P2, 2-[2-ethylsulfanyl-4-(trifluoromethyl)phenyl]-5-[6-(trifluoromethyl)-3-pyridyl]-1,3,4-thiadiazole]
melting point: 170 to 172 °C

CCS(=O)(=O)c1cc(C(F)(F)F)ccc1-c1nnc(-c2cncc(C(F)(F)F)c2)s1 [Compound P4, 2-[2-ethylsulfonyl-4-(trifluoromethyl)phenyl]-5-[5-(trifluoromethyl)-3-pyridyl]-1,3,4-thiadiazole]
mortality at 200 ppm [1]: ≥ 80%
mortality at 200 ppm [2]: ≥ 80%
percent effect (mortality or growth inhibition) at 200 ppm [3]: ≥ 80%
mortality at 200 ppm [4]: ≥ 80%
percent control (mortality, anti-feedancy or growth inhibition) at 12.5 ppm [5]: ≥ 80%

CCS(=O)(=O)c1cc(-c2ncccn2)cnc1-c1nnc(-c2cncc(C(F)(F)F)c2)s1 [Compound P16, 2-(3-ethylsulfonyl-5-pyrimidin-2-yl-2-pyridyl)-5-[5-(trifluoromethyl)-3-pyridyl]-1,3,4-thiadiazole]
mortality at 200 ppm [1]: ≥ 80%

CCS(=O)(=O)c1cc(C(F)(F)F)cnc1-c1ncc(-c2ccc(C(F)(F)F)cn2)s1 [Compound P13, 2-[3-ethylsulfonyl-5-(trifluoromethyl)-2-pyridyl]-5-[5-(trifluoromethyl)-2-pyridyl]thiazole]
melting point: 208 to 210 °C

CCS(=O)(=O)c1cc(C(F)(F)F)ccc1-c1ncc(-c2ccc(C(F)(F)F)nc2)s1 [Compound P8, 2-[2-ethylsulfonyl-4-(trifluoromethyl)phenyl]-5-[6-(trifluoromethyl)-3-pyridyl]thiazole]
mortality at 200 ppm [1]: ≥ 80%
percent effect (mortality or growth inhibition) at 200 ppm [3]: ≥ 80%
mortality at 200 ppm [4]: ≥ 80%

CCS(=O)(=O)c1cc(C(F)(F)F)ccc1-c1nnc(-c2ccc(C(F)(F)F)nc2)s1 [Compound P1, 2-[2-ethylsulfonyl-4-(trifluoromethyl)phenyl]-5-[6-(trifluoromethyl)-3-pyridyl]-1,3,4-thiadiazole]
mortality at 200 ppm [1]: ≥ 80%
percent effect (mortality or growth inhibition) at 200 ppm [3]: ≥ 80%
mortality at 200 ppm [4]: ≥ 80%

CCS(=O)(=O)c1cc(C(F)(F)F)cnc1-c1nnc(-c2ccc(C(F)(F)F)nc2)s1 [Compound P21, 2-[3-ethylsulfonyl-5-(trifluoromethyl)-2-pyridyl]-5-[6-(trifluoromethyl)-3-pyridyl]-1,3,4-thiadiazole]
melting point: 193 to 195 °C

CCS(=O)(=O)c1cc(C(F)(F)F)cnc1-c1ncc(-c2cncc(C(F)(F)F)c2)s1 [Compound P14, 2-[3-ethylsulfonyl-5-(trifluoromethyl)-2-pyridyl]-5-[5-(trifluoromethyl)-3-pyridyl]thiazole]
mortality at 200 ppm [4]: ≥ 80%

CCS(=O)(=O)c1cc(C(F)(F)F)cnc1-c1nnc(-c2cc(C(F)(F)F)ccn2)s1 [Compound P10, 2-[3-ethylsulfonyl-5-(trifluoromethyl)-2-pyridyl]-5-[4-(trifluoromethyl)-2-pyridyl]-1,3,4-thiadiazole]
mortality at 200 ppm [1]: ≥ 80%
mortality at 200 ppm [4]: ≥ 80%

CCS(=O)(=O)c1cc(C(F)(F)F)cnc1-c1nccs1 [Compound P11, 2-[3-ethylsulfonyl-5-(trifluoromethyl)-2-pyridyl]thiazole]
melting point: 110 to 112 °C

CCS(=O)(=O)c1cc(C(F)(F)F)cnc1-c1ncc(-c2ccc(C(F)(F)F)nc2)s1 [Compound P15, 2-[3-ethylsulfonyl-5-(trifluoromethyl)-2-pyridyl]-5-[6-(trifluoromethyl)-3-pyridyl]thiazole]
melting point: 228 to 230 °C

CCSc1cc(C(F)(F)F)ccc1-c1ncc(-c2ccc(C(F)(F)F)nc2)s1 [Compound P7, 2-[2-ethylsulfanyl-4-(trifluoromethyl)phenyl]-5-[6-(trifluoromethyl)-3-pyridyl]thiazole]
percent effect (mortality or growth inhibition) at 200 ppm [3]: ≥ 80%

CCS(=O)(=O)c1ccc(-c2ncccn2)nc1-c1nnc(-c2cncc(C(F)(F)F)c2)s1 [Compound P17, 2-(3-ethylsulfonyl-6-pyrimidin-2-yl-2-pyridyl)-5-[5-(trifluoromethyl)-3-pyridyl]-1,3,4-thiadiazole]
mortality at 200 ppm [1]: ≥ 80%
percent effect (mortality or growth inhibition) at 200 ppm [3]: ≥ 80%

CCS(=O)(=O)c1cc(C(F)(F)F)cnc1-c1ncc(-c2cc(C(F)(F)F)ccn2)s1 [Compound P12, 2-[3-ethylsulfonyl-5-(trifluoromethyl)-2-pyridyl]-5-[4-(trifluoromethyl)-2-pyridyl]thiazole]
melting point: 173 to 175 °C

CCS(=O)(=O)c1cc(C(F)(F)F)cnc1-c1nnc(-c2cncc(C(F)(F)F)c2)s1 [Compound P6, 2-[3-ethylsulfonyl-5-(trifluoromethyl)-2-pyridyl]-5-[5-(trifluoromethyl)-3-pyridyl]-1,3,4-thiadiazole]
mortality at 200 ppm [1]: ≥ 80%
percent effect (mortality or growth inhibition) at 200 ppm [3]: ≥ 80%
mortality at 200 ppm [4]: ≥ 80%
